Data from article PMC4784888, “Activity Based High-Throughput Screening for Novel O-GlcNAc Transferase Substrates Using a Dynamic Peptide Microarray” (PLoS ONE, 2016).

Experiments:
Assay type in all cases: biochemical, human
m-OGT [1] = assay: O-GlcNAcylation on kinase substrate peptide microarray, m-OGT; conditions: bacterial lysate containing m-OGT (7 μg/μL), 1 mM UDP-GlcNAc, 50 mM Tris-HCl pH 7.5, 30°C, FITC antibody fluorescence, corrected for signal without UDP-GlcNAc
Protocol: (§1) Plasmids encoding s-OGT, m-OGT, and nc-OGT are generous gifts from John A. Hanover (National Institute of Health, USA). OGT overexpression was carried out as previously described. All the plasmids were transformed into E.coli BL21 (DE3) competent cells to produce a cell lysate containing OGT for use or for further purification. Briefly, inoculated a single colony into 50 ml of LB broth media containing 50 μg/ml ampicillin and cells were grown overnight at 37°C with vigorous shaking. 50 mL of the start culture was added into 1L LB broth media containing 50 μg/mL ampicillin and it was incubated with shaking at 200 rpm at 37°C until A600 reached 0.4–0.6. After the culture was cooled to room temperature, 0.5 mM IPTG was added into the culture to induce protein expression. After 16 hours, the cells were collected by centrifugation for 10 min at 4000 RPM at 4°C. The pellets were lysed in lysis buffer containing 20 mM Tris-HCl, pH 7.5, 1 mg/mL lysome, 0.1% triton x-100 and complete mini EDTA-free protease inhibitor cocktail on ice for 10 min and the lysate was sonicated until the DNA was completely sheared. After centrifugation for 10 min at 12000 rpm at 4°C, the supernatant was carefully transferred into a clean tube and was ready for the array assay or for further purification. Protein expression was determined by coomassie blue staining and western blotting using an anti-OGT antibody.
(§2) Peptide O-GlcNAcylation was assessed using PamChip 4 microarray chips with a PamStation 12 instrument (Pamgene international, The Netherlands). The OGT enzyme reaction was prepared essentially as described[26] with minor modifications. Briefly, before addition of the enzyme reaction, the microarray was blocked with blocking buffer (1% BSA in TBS). After 30 cycles (2 cycles/min) blocking, the blocking buffer was aspirated and the microarray was incubated with 40 μL of the enzyme reaction containing OGT (lysate or purified), OGT reaction buffer (50 mM Tris—HCl, pH 7.5;1 mM DTT;12.5 mM MgCl2), a 1:1 pre-incubated mixture of anti-O-GlcNAc and FITC conjugated secondary antibody, and the sugar donor UDP-GlcNAc or water as a control for 480 cycles (2 cycles/min) at 30°C. The microarray was run in parallel by pumping the reaction up and down through the porous membrane at every cycle and a tiff image was obtained at every 20 cycles by a CCD camera inside the PamStation. O-GlcNAcylation of each peptide was detected by a fluorescent signal which was produced by an FITC conjugated antibody bound to the O-GlcNAc moiety on the peptide.
(§3) Image analysis was performed using BioNavigator 6 software (Pamgene international, The Netherlands). Briefly, each image was quantified by automated array grid finding and subsequent quantification of signal and local background for each individual spot. In this work, the signal median-minus-background value was used as the quantitative parameter for the O-GlcNAcylation of the peptide.
(§4) Dynamic peptide microarray (PamChip) technology has been successfully and widely used for kinase activities profiling in the last decade. In the present work, we describe, for the first time, the utility of this peptide microarray format for the identification of human OGT activity. Due to the fact that O-GlcNAcylation and phosphorylation may occur at the same or proximal amino acids on the same protein [9], a peptide microarray of 144 peptides derived from different kinase substrates (S1 Appendix) was selected for an initial test. […] O-GlcNAcylation of peptides in each individual spot was detected by a fluorescent signal produced by the FITC labelled antibody recognizing the O-GlcNAcylated amino acids of converted peptides. Kinetic activity was measured through scanning the signal at regular intervals.
(§5) Fig 2 Identification of human OGT substrates from a kinase substrate and nuclear hormone receptor interaction peptide microarray. […]

s-OGT [2] = assay: O-GlcNAcylation on kinase substrate peptide microarray, s-OGT; conditions: bacterial lysate containing s-OGT (7 μg/μL), 1 mM UDP-GlcNAc, 50 mM Tris-HCl pH 7.5, 30°C, FITC antibody fluorescence, corrected for signal without UDP-GlcNAc
Protocol: as §1, §2, §3, §4, §5

nc-OGT [3] = assay: O-GlcNAcylation on kinase substrate peptide microarray, nc-OGT; conditions: bacterial lysate containing nc-OGT (7 μg/μL), 1 mM UDP-GlcNAc, 50 mM Tris-HCl pH 7.5, 30°C, FITC antibody fluorescence, corrected for signal without UDP-GlcNAc
Protocol: as §1, §2, §3, §4, §5

s-OGT [4] = assay: O-GlcNAcylation on nuclear hormone receptor interaction peptide microarray, s-OGT; conditions: bacterial lysate containing s-OGT (7 μg/μL), 1 mM UDP-GlcNAc, 50 mM Tris-HCl pH 7.5, 30°C, FITC antibody fluorescence, corrected for signal without UDP-GlcNAc
Protocol: as §1, §2, §3, §4, §5

nc-OGT [5] = assay: O-GlcNAcylation on nuclear hormone receptor interaction peptide microarray, nc-OGT; conditions: bacterial lysate containing nc-OGT (7 μg/μL), 1 mM UDP-GlcNAc, 50 mM Tris-HCl pH 7.5, 30°C, FITC antibody fluorescence, corrected for signal without UDP-GlcNAc
Protocol: as §1, §2, §3, §4, §5

m-OGT [6] = assay: O-GlcNAcylation on nuclear hormone receptor interaction peptide microarray, m-OGT; conditions: bacterial lysate containing m-OGT (7 μg/μL), 1 mM UDP-GlcNAc, 50 mM Tris-HCl pH 7.5, 30°C, FITC antibody fluorescence, corrected for signal without UDP-GlcNAc
Protocol: as §1, §2, §3, §4, §5

[7] = tested on: OGT (s-OGT, m-OGT, nc-OGT); assay: O-GlcNAcylation on nuclear hormone receptor interaction peptide microarray, three isoforms taken together; conditions: for O-GlcNAcylation by three isoforms: nuclear hormone receptor interaction microarray, bacterial lysates s-, m-, nc-OGT, 1 mM UDP-GlcNAc; for identification in microarray assay: nuclear receptor interaction peptide microarray
Protocol: as §1, §2, §3
as §4, with “activity.” for “activity. Due to the fact that O-GlcNAcylation and phosphorylation may occur at the same or proximal amino acids on the same protein [9], a peptide microarray of 144 peptides derived from different kinase substrates (S1 Appendix) was selected for an initial test.”, “intervals. […]” for “intervals.”

Sequence | OGT isoforms activity, m (m-OGT [1]) | OGT isoforms activity, s (s-OGT [2]) | OGT isoforms activity, nc (nc-OGT [3]) | OGT isoforms activity, s (s-OGT [4]) | OGT isoforms activity, nc (nc-OGT [5]) | OGT isoforms activity, m (m-OGT [6]) | O-GlcNAcylation by three isoforms [7] | identification in microarray assay [7]
DNTPHTPTPFKNA [MYBB_513_525, kinase substrate microarray peptide …] | N (otherwise negative (N)) | P (Signal greater than 5% of the highest signal was defined as positive (P)) | N (otherwise negative (N)) | – | – | – | – | –
DSVRKGKQDSTLLASLLQSFSSR [NRIP1_121_143_P124R] | – | – | – | N (otherwise negative) | N (otherwise negative) | P (Signal greater than 5% of the highest signal was defined as positive) | – | –
EGLRSRSTRMSTVS [KIF2C_105_118_S106G, kinase substrate microarray peptide …] | P (Signal greater than 5% of the highest signal was defined as positive (P)) | N (otherwise negative (N)) | N (otherwise negative (N)) | – | – | – | – | –
ERSKTVTSFYNQS [BCKD_45_57, kinase substrate microarray peptide …] | N (otherwise negative (N)) | N (otherwise negative (N)) | P (Signal greater than 5% of the highest signal was defined as positive (P)) | – | – | – | – | –
GLGRSITSPTTLY [RBL-2_655_667, kinase substrate microarray peptide …] | P (Signal greater than 5% of the highest signal was defined as positive (P)) | P (Signal greater than 5% of the highest signal was defined as positive (P)) | P (Signal greater than 5% of the highest signal was defined as positive (P)) | – | – | – | – | –
GQRNISTLSTIQKLPRLLVASSS [WIPI1_313_335_C318S] | – | – | – | P (Signal greater than 5% of the highest signal was defined as positive) | P (Signal greater than 5% of the highest signal was defined as positive) | P (Signal greater than 5% of the highest signal was defined as positive) | O-GlcNAcylation by three isoforms was observed | –
GSDVHQDSIVLTYLEGLLMHQAA [NRIP1_8_30] | – | – | – | N (otherwise negative) | N (otherwise negative) | P (Signal greater than 5% of the highest signal was defined as positive) | – | –
GTGGLSAVSSGPRLRLLLLESVS [PELP1_20_42] | – | – | – | – | – | – | – | not identified in our microarray assay
HGEDFSKVSQNPILTSLLQITGNG [MED1_591_614] | – | – | – | N (otherwise negative) | P (Signal greater than 5% of the highest signal was defined as positive) | N (otherwise negative) | – | –
HGSQNRPLLRNSLDDLLGPPSNA [NCOA3_MOUSE_1029_1051] | – | – | – | N (otherwise negative) | P (Signal greater than 5% of the highest signal was defined as positive) | N (otherwise negative) | – | –
KWTKRTLSETSSS [KCNB1_489_501, kinase substrate microarray peptide …] | N (otherwise negative (N)) | N (otherwise negative (N)) | P (Signal greater than 5% of the highest signal was defined as positive (P)) | – | – | – | – | –
LVSPAMREAPTSLSQLLDNSGAP [NCOA6_1479_1501] | – | – | – | P (Signal greater than 5% of the highest signal was defined as positive) | P (Signal greater than 5% of the highest signal was defined as positive) | P (Signal greater than 5% of the highest signal was defined as positive) | O-GlcNAcylation by three isoforms was observed | –
PATSPKPSVASSQLALLLSSEAH [NRIP1_253_275_C263S] | – | – | – | N (otherwise negative) | P (Signal greater than 5% of the highest signal was defined as positive) | P (Signal greater than 5% of the highest signal was defined as positive) | – | –
QFPLPKNLLAKVIQIATSSSTA [DHX30_241_262] | – | – | – | N (otherwise negative) | N (otherwise negative) | P (Signal greater than 5% of the highest signal was defined as positive) | – | –
QVEFRRLSISAES [KPB1_1011_1023, kinase substrate microarray peptide …] | N (otherwise negative (N)) | P (Signal greater than 5% of the highest signal was defined as positive (P)) | N (otherwise negative (N)) | – | – | – | – | –
SDGDSKYSQTSHKLVQLLTTTAEQ [NCOA1_620_643] | – | – | – | – | – | – | – | not identified in our microarray assay
SDTLPEVSAIPISLDGLLFPRPS [PRGR_42_64_C64S] | – | – | – | P (Signal greater than 5% of the highest signal was defined as positive) | N (otherwise negative) | P (Signal greater than 5% of the highest signal was defined as positive) | – | –
SPSQGAASRPAILYALLSSSLKA [NR0B2_9_31_C9S/C11S] | – | – | – | N (otherwise negative) | N (otherwise negative) | P (Signal greater than 5% of the highest signal was defined as positive) | – | –
SQSTFNNPRPGQLGRLLPNQNLP [NCOA2_866_888] | – | – | – | N (otherwise negative) | N (otherwise negative) | P (Signal greater than 5% of the highest signal was defined as positive) | – | –
TTSPTAATTQNPVLSKLLMADQD [LCOR_40_62] | – | – | – | N (otherwise negative) | N (otherwise negative) | P (Signal greater than 5% of the highest signal was defined as positive) | – | –
TVAASPAASGAPTLSRLLEAGPT [BRD8_254_276] | – | – | – | P (Signal greater than 5% of the highest signal was defined as positive) | P (Signal greater than 5% of the highest signal was defined as positive) | P (Signal greater than 5% of the highest signal was defined as positive) | O-GlcNAcylation by three isoforms was observed | –
